This is an account of results in patent publication US20240366711A1, “PREPARATION CONTAINING CYCLIC PEPTIDE COMPOUND AND METHOD FOR PRODUCING SAME” (CHUGAI SEIYAKU KABUSHIKI KAISHA, priority 2021, published 2024).

The target of assay [1] is Kras-SOS1 protein-protein interaction (Homo sapiens, UniProt P01116, G12D). Briefly: Kras-SOS1 protein-protein interaction inhibition (KrasG12D-SOS PPI) using AlphaScreen. Type of assay: binding. The conditions noted are these: biotin-tagged human Kras (GDP-loaded) and His-tagged human SOS1, AlphaScreen. Background: Bead proximity is the source of the signal in Alpha formats.
Chain of Kras-SOS1 protein-protein interaction (P01116 whole entry G12D): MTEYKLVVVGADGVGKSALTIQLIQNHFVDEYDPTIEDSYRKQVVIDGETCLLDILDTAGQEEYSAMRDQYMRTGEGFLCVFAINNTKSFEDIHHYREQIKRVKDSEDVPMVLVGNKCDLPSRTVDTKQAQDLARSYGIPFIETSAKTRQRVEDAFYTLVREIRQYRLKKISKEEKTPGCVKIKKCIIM
Method: Kras-SOS1 protein-protein interaction inhibition (PPI) can be performed by a method known to those skilled in the art using a device, a reagent, or the like available from commercial suppliers. Specifically, biotin-tagged human Kras and His-tagged human SOS1 enzymes expressed in E. coli and loaded with GDP after purification were used to measure PPI by energy transfer from nickel-bound donor beads to streptavidin-bound acceptor beads. This measurement is performed by irradiating the donor beads with light of 680 nm to induce energy transfer to the acceptor beads via singlet oxygen, and detecting light of 520 to 620 nm from the acceptor beads. Based on the inhibition of the control group without Compound 1, 50% inhibitory concentration (IC50 value) was calculated.

The test system of assay [2] is Human pancreatic cancer strain AsPC-1. The assay can be described thus: AsPC-1 cell growth inhibitory activity (AsPC-1CGI). It is filed as cell-based. The conditions noted are these: AsPC-1 cells, 96 hours, CellTiter-Glo; read-out: IC50 value (50% growth inhibition concentration). How it is done: AsPC-1 cell growth inhibitory activity can be performed by methods known to those skilled in the art using devices, reagents, cell lines, and the like available from commercial suppliers. Specifically, Compound 1 was serially diluted with dimethyl sulfoxide, then 200 nL of the dilution was dispensed into the U-bottom 96 well plate with Labcyte Echo. Human pancreatic cancer strain AsPC-1 was added to RPMI-1640 medium supplemented with 15% bovine fetal serum to prepare a cell suspension of 1000 cells/100 μL. The cell suspension was dispensed by 100 μL per well to Compound 1-added plates, and cultured in a 37° C., 5% carbon dioxide gas incubator. After 96 hours, 80 μL of CellTiter-Glo (Promega Corporation) was added to each well, and […] was measured. Cell growth inhibition (CGI) of the test compound was calculated as 50% growth inhibition concentration (IC50 value) from the growth inhibition rate of the case with addition of Compound I to the control without addition of Compound 1.

Molecules are shown by their SMILES. Bridge positions count the residues as written; N and C are the ends. Square brackets hold non-standard residues; d marks the D form. Peptide text beside a SMILES is read from it. hPhe(3,5-F2-4-CF3) = N[C@@H](CCc1cc(F)c(C(F)(F)F)c(F)c1)C(=O)O; NEtPhe(4-Me) = CCN[C@@H](Cc1ccc(C)cc1)C(=O)O; NMeGly(cPent) = CN[C@H](C(=O)O)C1CCCC1; NMeD = CN[C@@H](CC(=O)O)C(=O)O; NMeL = CN[C@@H](CC(C)C)C(=O)O; NMeA = CN[C@@H](C)C(=O)O; Ac5c = NC1(C(=O)O)CCCC1; Aze = O=C(O)[C@@H]1CCN1; Sar = CNCC(=O)O

`CC[C@H](C)[C@@H]1NC(=O)[C@H](CC(C)C)N(C)C(=O)C[C@@H](C(=O)N(C)C)N(C)C(=O)[C@H](C2CCCC2)N(C)C(=O)C2(CCCC2)NC(=O)[C@@H]2CCCN2C(=O)[C@H](CCc2cc(F)c(C(F)(F)F)c(F)c2)NC(=O)CN(C)C(=O)[C@H](Cc2ccc(C)cc2)N(CC)C(=O)[C@@H]2CCN2C(=O)[C@H](C)N(C)C1=O` [Compound 1, (5S,8S,11S,15S,18S,23aS,29S,35S,37aS)-8-((S)-sec-butyl)-18-cyclopentyl-29-(3,5-difluoro-4-(trifluoromethyl)phenethyl)-36-ethyl-11-isobutyl-N,N,5,6,12,16,19,33-octamethyl-35-(4-methylbenzyl)-4,7,10,13,17,20,23,28,31,34,37-undecaoxotetratriacontahydro-2H,4H-spiro[azeto[2,1-u]pyrrolo[2,1-i][1,4,7,10,13,16,19,22,25,28,31]undecaazacyclotetratriacontin-21,1′-cyclopentane]-15-carboxamide] ([NMeL]I[NMeA][Aze][NEtPhe(4-Me)][Sar][hPhe(3,5-F2-4-CF3)]P[Ac5c][NMeGly(cPent)][NMeD]-NMe2; lactam N-11): the IC50 in assay [1] was 1 nM; in assay [2], no more than 20 nM.
